How the values were obtained:
Assay in all cases: relative viability (nuclei count vs DMSO), 5 days (fraction); higher = more cells survive
Elesclomol + Navitoclax = compound: CN(NC(=O)CC(=O)NN(C)C(=S)c1ccccc1)C(=S)c1ccccc1 [Elesclomol] + CC1(C)CCC(c2ccc(Cl)cc2)=C(CN2CCN(c3ccc(C(=O)NS(=O)(=O)c4ccc(N[C@H](CCN5CCOCC5)CSc5ccccc5)c(S(=O)(=O)C(F)(F)F)c4)cc3)CC2)C1 [Navitoclax] (partner 0.5 µM)
How it was run: (§1)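 Lung cancer cell lines in 1536-well plates got either a single drug or a fixed anchor-drug dose together with five library-drug doses (not always all listed) in √10 steps, by pin tool, on the day after seeding. Nuclei were counted after 5 days, and relative viability is the treated-to-vehicle ratio of nuclei counts. Values are medians of duplicate plates.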

Elesclomol + Foretinib = compound: CN(NC(=O)CC(=O)NN(C)C(=S)c1ccccc1)C(=S)c1ccccc1 [Elesclomol] + COc1cc2c(Oc3ccc(NC(=O)C4(C(=O)Nc5ccc(F)cc5)CC4)cc3F)ccnc2cc1OCCCN1CCOCC1 [Foretinib] (partner 0.25 µM)
How it was run: as §1

Elesclomol + Dasatinib = compound: CN(NC(=O)CC(=O)NN(C)C(=S)c1ccccc1)C(=S)c1ccccc1 [Elesclomol] + Cc1nc(Nc2ncc(C(=O)Nc3c(C)cccc3Cl)s2)cc(N2CCN(CCO)CC2)n1 [Dasatinib] (partner 0.075 µM)
How it was run: as §1

Elesclomol + Decitabine = compound: CN(NC(=O)CC(=O)NN(C)C(=S)c1ccccc1)C(=S)c1ccccc1 [Elesclomol] + Nc1ncn([C@H]2C[C@H](O)[C@@H](CO)O2)c(=O)n1 [Decitabine] (partner 2 µM)
How it was run: as §1

Elesclomol + Tozasertib = compound: CN(NC(=O)CC(=O)NN(C)C(=S)c1ccccc1)C(=S)c1ccccc1 [Elesclomol] + Cc1cc(Nc2cc(N3CCN(C)CC3)nc(Sc3ccc(NC(=O)C4CC4)cc3)n2)n[nH]1 [Tozasertib] (partner 0.1 µM)
How it was run: as §1

| Cell Line | relative viability (Elesclomol + Navitoclax; first compound 0.003162 µM) | relative viability (Elesclomol + Navitoclax; first compound 0.01 µM) | relative viability (Elesclomol + Navitoclax; first compound 0.03162 µM) | relative viability (Elesclomol + Navitoclax; first compound 0.1 µM) | relative viability (Elesclomol + Foretinib; first compound 0.003162 µM) | relative viability (Elesclomol + Foretinib; first compound 0.01 µM) | relative viability (Elesclomol + Foretinib; first compound 0.03162 µM) | relative viability (Elesclomol + Foretinib; first compound 0.1 µM) | relative viability (Elesclomol + Dasatinib; first compound 0.003162 µM) | relative viability (Elesclomol + Dasatinib; first compound 0.01 µM) | relative viability (Elesclomol + Dasatinib; first compound 0.03162 µM) | relative viability (Elesclomol + Dasatinib; first compound 0.1 µM) | relative viability (Elesclomol + Decitabine; first compound 0.003162 µM) | relative viability (Elesclomol + Decitabine; first compound 0.01 µM) | relative viability (Elesclomol + Decitabine; first compound 0.03162 µM) | relative viability (Elesclomol + Decitabine; first compound 0.1 µM) | relative viability (Elesclomol + Tozasertib; first compound 0.003162 µM) | relative viability (Elesclomol + Tozasertib; first compound 0.01 µM) | relative viability (Elesclomol + Tozasertib; first compound 0.03162 µM) | relative viability (Elesclomol + Tozasertib; first compound 0.1 µM) |
| --- | --- | --- | --- | --- | --- | --- | --- | --- | --- | --- | --- | --- | --- | --- | --- | --- | --- | --- | --- | --- |
| LXF-289 | 0.851 | 0.924 | 0.875 | 0.575 | 0.979 | 0.942 | 0.894 | 0.684 | 0.243 | 0.176 | 0.202 | 0.113 | 0.395 | 0.39 | 0.389 | 0.253 | 0.193 | 0.17 | 0.188 | 0.174 |
| NCI-H23 | 0.799 | – | 0.761 | 0.144 | 0.971 | 1.03 | 0.746 | 0.247 | 0.823 | 0.725 | 0.743 | 0.171 | 0.338 | 0.338 | 0.213 | 0.147 | 0.349 | 0.311 | 0.36 | 0.128 |
| NCI-H322M | 1.27 | – | 1.06 | 0.858 | 0.837 | 0.656 | 0.356 | 0.26 | 0.251 | 0.206 | 0.123 | 0.0962 | 0.608 | 0.511 | 0.402 | 0.29 | 0.335 | 0.275 | 0.186 | 0.122 |
| NCI-H441 | 0.712 | 0.469 | 0.253 | 0.103 | 1.07 | 0.924 | 0.513 | 0.127 | 0.547 | 0.656 | 0.451 | 0.0877 | 0.22 | 0.209 | 0.216 | 0.127 | 0.546 | 0.794 | 0.332 | 0.1 |
| NCI-H460 | 0.997 | 0.379 | 0.0164 | 0.0095 | 0.975 | 0.848 | 0.27 | 0.0259 | 0.516 | 0.422 | 0.0534 | 0.0171 | 0.433 | 0.396 | 0.107 | 0.0381 | 0.497 | 0.365 | 0.116 | 0.0193 |
| NCI-H520 | 1.08 | 0.939 | 0.587 | 0.162 | 0.757 | 0.771 | 0.251 | 0.111 | 0.166 | 0.158 | 0.138 | 0.0789 | 0.526 | 0.411 | 0.313 | 0.143 | 0.442 | 0.355 | 0.223 | 0.181 |
| NCI-H596 | 0.912 | 0.941 | 0.877 | 0.189 | 0.918 | 1.03 | 0.764 | 0.158 | 0.606 | 0.545 | 0.575 | 0.21 | 1.03 | 0.903 | 0.664 | 0.241 | 0.925 | 0.828 | 0.598 | 0.178 |
| NCI-H647 | 1.05 | 0.665 | 0.191 | 0.0372 | 1.05 | 0.973 | 0.359 | 0.0921 | 0.172 | 0.142 | 0.0544 | 0.0326 | 0.355 | 0.293 | 0.259 | 0.0841 | 0.388 | 0.212 | 0.0671 | 0.0175 |
